# Data from publication PMC11266321 (EJNMMI Radiopharmacy and Chemistry, 2024).
# Tests used:
# [1] = tested on: GABA A (agonist site); assay: Radioligand binding inhibition, GABA A agonist site; conditions: 10 µM; radioligand [^3H]Muscimol; mean of duplicate
# Experimental: (§1) Interaction of MMP with 28 binding sites was examined, including major classes of neurotransmitter receptor, uptake system, and ion channels (Sekisui Medical, Naka, Japan). MMP was tested in all assays at 10 µM. […] 10.2.3 (GraphPad Software, San Diego, CA). Each determination was made in duplicate.
# (§2) Test substance concentration : 10 µM, positive substance concentration : 10 µM
# (§3) Data are expressed as the mean values of duplicate samples.
# (§4) The % inhibition was calculated from “100 – binding ratio”.
# (§5) Binding ratio: [(B - N) / (B0 - N)] × 100 (%)
# (§6) B: Bound radioactivity in the presence of test substance and positive substance (individual value)
# (§7) B0: Total bound radioactivity in the absence of test substance and positive substance (mean value)
# (§8) N: Non-specific bound radioactivity (mean value)
# [2] = target: T1, Muscarinic M2 (Homo sapiens, UniProt P08172); assay: Radioligand binding inhibition, Muscarinic M2; conditions: 10 µM; radioligand [^3H]AF-DX384; mean of duplicate
# T1 construct: Sekisui Medical (contract laboratory)
# Experimental: Interaction of MMP with 28 binding sites was examined, including major classes of neurotransmitter receptor, uptake system, and ion channels (Sekisui Medical, Naka, Japan). MMP was tested in all assays at 10 µM. […] Each determination was made in duplicate.
# as §2, §3, §4, §5, §6, §7, §8
# [3] = tested on: Sprague–Dawley rats; assay: Acute toxicity of MMP, single intraperitoneal injection; type: in vivo, rat
# Description: The MMP was custom synthesized by the Nard Institute (Kobe, Japan) using methods described previously (Toyohara et al. [2020a]). All other chemical reagents were obtained from commercial sources. Male ddY mice were obtained from Japan SLC (Hamamatsu, Japan). Sprague–Dawley rats [Crl: CD(SD)] were obtained from […] (Yokohama, Japan). Animal studies were approved by the Animal Care and Use Committee of the Tokyo Metropolitan Institute for Geriatrics and Gerontology (Approval Nos. 22,015 and 23,007) and Nihon Bioresearch (Hashima, Japan; Approval Nos. 430,085 and 430,086). Acute toxicity studies were performed under the “Revisions of the Guidelines for Single and Repeated Dose Toxicity Studies” (PMDA, 1993). Ames test was performed under the “Guidance on Genotoxicity Testing and Data Interpretation for Pharmaceuticals Intended for Human Use” (PMDA, 2012).
# In Japan, the structure of nonclinical toxicology studies for PET drugs in clinical research is the responsibility of the ethics committee of each institution or the subcommittee of specialities of PET drugs. According to the method used previously for approval of PET drugs for clinical use in our institute (Toyohara et al. [2013], [2016], [2020b]; Sakata et al. [2017]), we performed single-arm acute toxicology studies of the active pharmaceutical ingredient (MMP) and final dose formulation ([^11C]MMP injection). Mutagenicity tests will also be conducted, as there are concerns about stochastic effects on genotoxicity.
# Acute toxicity studies were performed at the Hashima Research Center, Nihon Bioresearch, under non-Good Laboratory Practice (GLP) control. Acute toxicity of MMP was tested in Sprague–Dawley rats. MMP at a dose of 3.55 mg/kg body weight (0.71 mg/mL in 10 v/v% dimethyl sulfoxide containing water for injection) was injected intraperitoneally into 5-week-old rats weighing 143–172 g (male, n = 5) and 129–135 g (female, n = 5). The dose of 3.55 mg/kg body weight is the 10,000-fold equivalent of the postulated maximum administration dose (1.85 nmol/0.355 µg/kg body weight) of 740 MBq [^11C]MMP, with the lowest molar activity (Am) of 10 MBq/nmol for humans weighing 40 kg. Rats were observed frequently until 1 h and then at 2, 4, and 6 h after the injection on day 1, and thereafter once daily for 14 days for clinical signs of toxicity. Rats were weighed on days 1, 2, 4, 7, 10, and 14. At the end of the 14-day observation period, the rats were euthanized by exsanguination under isoflurane anaesthesia, and a macroscopic analysis of the autopsy samples was performed.
# [4] = tested on: Glutamate (NMDA phencyclidine site); assay: Radioligand binding inhibition, Glutamate NMDA phencyclidine site; conditions: 10 µM; radioligand [^3H]MK-801; mean of duplicate
# Experimental: as §1, §2, §3, §4, §5, §6, §7, §8
# [5] = target: T2, Dopamine D2 (Homo sapiens, UniProt P14416); assay: Radioligand binding inhibition, Dopamine D2; conditions: 10 µM; radioligand [^3H]Spiperone; mean of duplicate
# T2 construct: Sekisui Medical (contract laboratory)
# Experimental: as §1, §2, §3, §4, §5, §6, §7, §8
# [6] = target: T3, Histamine H2 (Homo sapiens, UniProt P25021); assay: Radioligand binding inhibition, Histamine H2; conditions: 10 µM; radioligand [^125I]Iodoaminopotentidine; mean of duplicate
# T3 construct: Sekisui Medical (contract laboratory)
# Experimental: as §1, §2, §3, §4, §5, §6, §7, §8
# [7] = tested on: Glycine (strychnine site); type: binding; conditions: 10 µM; radioligand [^3H]Strychine; mean of duplicate
# [8] = tested on: other brain neuroreceptors; assay: Receptor selectivity panel, other binding sites; conditions: 10 µM; binding sites other than sigma
# Experimental: as §1
# T2 sequence (P14416 whole entry): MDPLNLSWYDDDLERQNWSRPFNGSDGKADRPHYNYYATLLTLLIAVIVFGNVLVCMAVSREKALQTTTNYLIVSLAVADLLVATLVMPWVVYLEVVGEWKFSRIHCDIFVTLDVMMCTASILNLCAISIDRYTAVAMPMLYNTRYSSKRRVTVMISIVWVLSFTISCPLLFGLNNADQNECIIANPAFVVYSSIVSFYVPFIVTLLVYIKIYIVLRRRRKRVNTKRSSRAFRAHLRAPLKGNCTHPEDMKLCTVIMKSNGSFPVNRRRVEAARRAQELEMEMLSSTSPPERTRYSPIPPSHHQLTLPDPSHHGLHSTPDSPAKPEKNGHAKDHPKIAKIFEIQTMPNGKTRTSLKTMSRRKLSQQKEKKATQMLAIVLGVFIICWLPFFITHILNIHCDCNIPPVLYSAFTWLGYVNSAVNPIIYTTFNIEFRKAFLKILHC
# T1 sequence (P08172 whole entry): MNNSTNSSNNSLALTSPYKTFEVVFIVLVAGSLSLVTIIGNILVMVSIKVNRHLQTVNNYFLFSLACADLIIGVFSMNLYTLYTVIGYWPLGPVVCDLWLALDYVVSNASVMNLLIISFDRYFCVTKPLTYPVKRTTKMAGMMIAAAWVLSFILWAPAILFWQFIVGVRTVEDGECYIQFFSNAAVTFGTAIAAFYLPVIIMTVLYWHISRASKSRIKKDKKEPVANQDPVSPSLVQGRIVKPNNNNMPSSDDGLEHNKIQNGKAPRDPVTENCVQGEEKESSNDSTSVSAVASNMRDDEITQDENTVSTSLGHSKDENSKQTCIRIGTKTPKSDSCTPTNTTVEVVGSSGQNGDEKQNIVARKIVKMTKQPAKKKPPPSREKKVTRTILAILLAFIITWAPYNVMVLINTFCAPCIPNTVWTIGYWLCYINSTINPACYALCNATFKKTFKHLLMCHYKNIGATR
# T3 sequence (P25021 whole entry): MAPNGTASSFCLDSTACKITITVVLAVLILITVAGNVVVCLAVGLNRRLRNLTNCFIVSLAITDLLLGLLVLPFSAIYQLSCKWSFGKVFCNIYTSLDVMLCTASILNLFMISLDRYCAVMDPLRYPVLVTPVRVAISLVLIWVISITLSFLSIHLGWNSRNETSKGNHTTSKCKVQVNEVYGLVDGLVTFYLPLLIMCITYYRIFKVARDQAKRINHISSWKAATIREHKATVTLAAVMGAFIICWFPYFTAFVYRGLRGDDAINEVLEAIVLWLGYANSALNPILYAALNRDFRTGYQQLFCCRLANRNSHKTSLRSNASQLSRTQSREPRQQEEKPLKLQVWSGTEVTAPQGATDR
smiles,measurement,setting,value
"Cc1ccc(CC(C)NC(C)C)cc1 (stereo not shown) [MMP, N-isopropyl-p-methylamphetamine]",Inhibition ratio (%),[1],3.62%
same,Inhibition ratio (%),[2],23.38%
same,NOAEL as multiple of postulated maximum administration dose,"[3]; 740 MBq, Am 10 MBq/nmol, human body weight 40 kg","1,600 times"
same,acute toxicity,"[3]; rats, 3.55 mg/kg body weight (10,000 times potential maximum clinical dose)",No acute toxicity
same,body weight gain,"[3]; rats, single i.p. 3.55 mg/kg",normal gains in body weight
same,post-mortem macroscopic examination,"[3]; rats, single i.p. 3.55 mg/kg",no abnormalities
same,mortality,"[3]; rats, single i.p. 3.55 mg/kg, 14-day observation",no mortality
same,clinical signs of toxicity,"[3]; rats, single i.p. 3.55 mg/kg, 15-day period",no clinical signs of toxicity
same,Inhibition ratio (%),[4],0.00%
same,Inhibition ratio (%),[5],6.04%
same,Inhibition ratio (%),[6],14.43%
same,Inhibition ratio (%),[7],4.11%
same,"inhibition, other brain neuroreceptors",[8],< 50%
